The supplement of paper PMC11061612

Key:
Capivasertib = compound: C1CN(CCC1(C(=O)N[C@@H](CCO)C2=CC=C(C=C2)Cl)N)C3=NC=NC4=C3C=CN4 [Capivasertib]
Summary of the method: (§1)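 Cancer cell lines were plated in 1536-well plates in 7.5 μl of DMEM/F12 or RPMI with 10% FBS and kept 24 hours at 37°C and 5% CO2 before 72 hours of dosing, with final DMSO typically 0.2%. CellTiter-Glo 2.0 luminescence measured viability, scaled between blank-well and DMSO-well means. Dose responses were fitted to a two-parameter logistic curve with a non-linear mixed effects model. This fit gives the single-agent IC50.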

AZD1775 = compound: C=CCn1c(=O)c2cnc(Nc3ccc(N4CCN(C)CC4)cc3)nc2n1-c1cccc(C(C)(C)O)n1 [AZD1775]; conditions: max 3 µM
Summary of the method: as §1

Trametinib = compound: CC(=O)Nc1cccc(-n2c(=O)n(C3CC3)c(=O)c3c(Nc4ccc(I)cc4F)n(C)c(=O)c(C)c32)c1 [Trametinib]; conditions: max 1 µM
Summary of the method: as §1

Palbociclib = compound: CC(=O)c1c(C)c2cnc(Nc3ccc(N4CCNCC4)cn3)nc2n(C2CCCC2)c1=O [Palbociclib]; conditions: max 10 µM
Summary of the method: as §1

AZD1390 = compound: CC(C)n1c(=O)n(C)c2cnc3cc(F)c(-c4ccc(OCCCN5CCCCC5)nc4)cc3c21 [AZD1390]; conditions: max 0.3 µM
Summary of the method: as §1

Venetoclax = compound: CC1(C)CCC(CN2CCN(c3ccc(C(=O)NS(=O)(=O)c4ccc(NCC5CCOCC5)c([N+](=O)[O-])c4)c(Oc4cnc5[nH]ccc5c4)c3)CC2)=C(c2ccc(Cl)cc2)C1 [Venetoclax]; conditions: max 1 µM
Summary of the method: as §1

Dasatinib = compound: CC1=C(C(=CC=C1)Cl)NC(=O)C2=CN=C(S2)NC3=CC(=NC(=N3)C)N4CCN(CC4)CCO [Dasatinib]; conditions: max 2 µM
Summary of the method: as §1

SG3199 = compound: CC1=CN2[C@@H](C1)C=NC3=CC(=C(C=C3C2=O)OC)OCCCCCOC4=C(C=C5C(=C4)N=C[C@@H]6CC(=CN6C5=O)C)OC [SG3199]; conditions: max 0.001 µM
Summary of the method: as §1

AZD2811 = compound: CCN(CCO)CCCOc1ccc2c(Nc3cc(CC(=O)Nc4cccc(F)c4)[nH]n3)ncnc2c1 [AZD2811]; conditions: max 1 µM
Summary of the method: as §1

SN-38 = compound: CCc1c2c(nc3ccc(O)cc13)-c1cc3c(c(=O)n1C2)COC(=O)[C@]3(O)CC [SN-38]; conditions: max 0.3 µM
Summary of the method: as §1

AZD0156 = compound: CN(C)CCCOc1ccc(-c2ccc3ncc4c(c3c2)n(C2CCOCC2)c(=O)n4C)cn1 [AZD0156]; conditions: max 3 µM
Summary of the method: as §1

AZD4320 = compound: CN(CC[C@H](CSC1=CC=CC=C1)NC2=C(C=C(C=C2)S(=O)(=O)NC(=O)C3=CC=C(C=C3)N4CCC(CC4)[C@H](C5=CC=CC=C5C6=CC=C(C=C6)Cl)O)S(=O)(=O)C(F)(F)F)CCO [AZD4320]; conditions: max 1 µM
Summary of the method: as §1

Alisertib = compound: COc1cc(Nc2ncc3c(n2)-c2ccc(Cl)cc2C(c2c(F)cccc2OC)=NC3)ccc1C(=O)O [Alisertib]; conditions: max 10 µM
Summary of the method: as §1

Gefitinib = compound: COc1cc2ncnc(Nc3ccc(F)c(Cl)c3)c2cc1OCCCN1CCOCC1 [Gefitinib]; conditions: max 10 µM
Summary of the method: as §1

Prexasertib = compound: COc1cccc(OCCCN)c1-c1cc(Nc2cnc(C#N)cn2)n[nH]1 [Prexasertib]; conditions: max 1 µM
Summary of the method: as §1

Doxorubicin = compound: COc1cccc2c1C(=O)c1c(O)c3c(c(O)c1C2=O)C[C@@](O)(C(=O)CO)C[C@@H]3O[C@H]1C[C@H](N)[C@H](O)[C@H](C)O1 [Doxorubicin]; conditions: max 1 µM
Summary of the method: as §1

AZD5153 = compound: COc1nnc2ccc(N3CCC(c4ccc(OCCN5CCN(C)C(=O)[C@H]5C)cc4)CC3)nn12 [AZD5153]; conditions: max 1 µM
Summary of the method: as §1

Lapatinib = compound: CS(=O)(=O)CCNCc1ccc(-c2ccc3ncnc(Nc4ccc(OCc5cccc(F)c5)c(Cl)c4)c3c2)o1 [Lapatinib]; conditions: max 10 µM
Summary of the method: as §1

AZD8186 = compound: C[C@@H](Nc1cc(F)cc(F)c1)c1cc(C(=O)N(C)C)cc2c(=O)cc(N3CCOCC3)oc12 [AZD8186]; conditions: max 3 µM
Summary of the method: as §1

Crizotinib = compound: C[C@@H](Oc1cc(-c2cnn(C3CCNCC3)c2)cnc1N)c1c(Cl)ccc(F)c1Cl [Crizotinib]; conditions: max 10 µM
Summary of the method: as §1

Savolitinib = compound: C[C@@H](c1ccc2nccn2c1)n1nnc2ncc(-c3cnn(C)c3)nc21 [Savolitinib]; conditions: max 1 µM
Summary of the method: as §1

AZD6738 = compound: C[C@@H]1COCCN1C2=NC(=NC(=C2)C3(CC3)[S@](=N)(=O)C)C4=C5C=CNC5=NC=C4 [AZD6738]; conditions: max 10 µM
Summary of the method: as §1

AZD5991 = compound: Cc1c2c(nn1C)CSCc1cc(n(C)n1)CSc1cc(c3ccccc3c1)OCCCc1c(C(=O)O)n(C)c3c-2c(Cl)ccc13 [AZD5991]; conditions: max 1 µM
Summary of the method: as §1

AZD7648 = compound: Cc1cc2ncnn2cc1Nc1ncc2c(n1)n(C1CCOCC1)c(=O)n2C [AZD7648]; conditions: max 10 µM
Summary of the method: as §1

Taselisib = compound: Cc1nc(-c2cn3c(n2)-c2ccc(-c4cnn(C(C)(C)C(N)=O)c4)cc2OCC3)n(C(C)C)n1 [Taselisib]; conditions: max 10 µM
Summary of the method: as §1

Selumetinib = compound: Cn1cnc2c(F)c(Nc3ccc(Br)cc3Cl)c(C(=O)NOCCO)cc21 [Selumetinib]; conditions: max 10 µM
Summary of the method: as §1

Olaparib = compound: O=C(c1cc(Cc2n[nH]c(=O)c3ccccc23)ccc1F)N1CCN(C(=O)C2CC2)CC1 [Olaparib]
Summary of the method: as §1

Cell Line	IC50, cell viability 72 h (Capivasertib; max 10 µM)	IC50, cell viability 72 h (AZD1775)	IC50, cell viability 72 h (Trametinib)	IC50, cell viability 72 h (Palbociclib)	IC50, cell viability 72 h (AZD1390)	IC50, cell viability 72 h (Venetoclax)	IC50, cell viability 72 h (Dasatinib)	IC50, cell viability 72 h (SG3199)	IC50, cell viability 72 h (AZD2811)	IC50, cell viability 72 h (SN-38)	IC50, cell viability 72 h (AZD0156)	IC50, cell viability 72 h (AZD4320)	IC50, cell viability 72 h (Alisertib)	IC50, cell viability 72 h (Gefitinib)	IC50, cell viability 72 h (Prexasertib)	IC50, cell viability 72 h (Doxorubicin)	IC50, cell viability 72 h (AZD5153)	IC50, cell viability 72 h (Lapatinib)	IC50, cell viability 72 h (AZD8186)	IC50, cell viability 72 h (Crizotinib)	IC50, cell viability 72 h (Savolitinib)	IC50, cell viability 72 h (AZD6738)	IC50, cell viability 72 h (AZD5991)	IC50, cell viability 72 h (AZD7648)	IC50, cell viability 72 h (Taselisib)	IC50, cell viability 72 h (Selumetinib)	IC50, cell viability 72 h (Olaparib; max 10 µM)	IC50, cell viability 72 h (Capivasertib; max 3 µM)	IC50, cell viability 72 h (Olaparib; max 3 µM)
8505C (Thyroid Gland Carcinoma)	> 10000 nM	1600 nM	> 1000 nM	> 10000 nM	> 300 nM	> 1000 nM	> 2000 nM	> 1 nM	> 1000 nM	23.6 nM	> 3000 nM	> 1000 nM	> 10000 nM	> 10000 nM	829 nM	565 nM	> 1000 nM	> 10000 nM	> 3000 nM	> 10000 nM	> 1000 nM	> 10000 nM	> 1000 nM	> 10000 nM	> 10000 nM	> 10000 nM	> 10000 nM	–	–
BICR10 (Oral Cavity Carcinoma)	–	413 nM	–	–	–	–	–	–	–	–	> 3000 nM	–	–	–	–	–	–	–	–	–	–	–	–	–	–	–	–	2520 nM	> 3000 nM
CHSA8926 (Chondrosarcoma)	> 10000 nM	1270 nM	–	> 10000 nM	> 300 nM	> 1000 nM	60.8 nM	> 1 nM	> 1000 nM	> 300 nM	> 3000 nM	> 1000 nM	> 10000 nM	> 10000 nM	> 1000 nM	703 nM	> 1000 nM	> 10000 nM	2240 nM	9160 nM	> 1000 nM	> 10000 nM	> 1000 nM	> 10000 nM	1520 nM	> 10000 nM	> 10000 nM	–	–
